US10166271B2, “Methods for promoting hair growth” (THE REGENTS OF THE UNIVERSITY OF CALIFORNIA, priority 2006, dated 2019)

Key:
young CRF-OE mice = conditions: young CRF-OE mice; over a two-month period
Experimental: Each subcutaneous injection is given in a single puncture located along or about the midline of the back. Age-matched CRF-OE mice similarly injected with 0.1 ml vehicle alone are used as negative controls. Astressin B fragments are as described in Example 8. Alternatively, topical astressin B can be applied to the mouse's back, for example 0.05 mg, 0.5 mg, 5 mg, 50 mg, or 500 mg of an astressin B fragment once daily for at least five consecutive days
Hair growth (or hair loss) is assessed using the hair growth scale described in Example 1. The general conditions of treated and control mice, such as weight, back skin thickness, hair luster, skin wounds and indurations, are noted.

[1] = system: male and female androgenetic patients; conditions: cited from earlier work
CRF-OE mice = type: in vivo; conditions: for Treated mice that died / did not survive / Hair growth: adult female CRF-OE mice; for Treated mice that died / did not survive: groups of five, minoxidil: a few days after the first injection, NBI 27914: within four weeks following the final injection; for Hair growth: 2 and 4 weeks (minoxidil) or four weeks (NBI 27914, surviving mouse) after the final injection
From the text: The NBI 27914 administration regimen was as previously described by Martinez et al. (J. Pharmacol. Exp. Ther., 301:611-617, 2002).

[2] = system: male patients between 18 and 41 years of age; post-menopausal women; conditions: cited from earlier work
[3] = oral 1 mg/day for 2 years, male patients 18-41 years

| Structure (SMILES) | Loss of hair compared with astressin B-treated mice (young CRF-OE mice) | Side effects ([1]; human, in vivo) | Patients with fine hair growth (fraction) ([1]; two percent topical) | Patients with no hair growth (fraction) ([1]; two percent topical) | Patients with visible hair growth (fraction) ([1]; two percent topical) | Treated mice that died / did not survive (CRF-OE mice) | Hair growth (CRF-OE mice) | Treated mice with induced patches of pigmentation (CRF-OE mice; sc 1% in 0.1 ml once per day x 10 days, by two weeks after the final injection, still-living mice) | Side effects ([2]; human, in vivo) | Cases in which further hair loss was prevented [2, 3] [%] | Cases with visible hair growth [2, 3] [%] | Efficacy of similar treatment regimen ([2]; post-menopausal women) |
| --- | --- | --- | --- | --- | --- | --- | --- | --- | --- | --- | --- | --- |
| Nc1cc(N2CCCCC2)nc(N)[n+]1[O-] [minoxidil] | substantially more loss of hair | scalp irritation and increased facial hair | approximately ⅓ | approximately ⅓ | approximately ⅓ | one treated mouse died | Moderate hair growth in the pigmented patches | 3 of the 4 | – | – | – | – |
| CCCN(CC1CC1)c1nc(C)nc(Nc2c(Cl)cc(Cl)cc2Cl)c1Cl [NBI 27914] | substantially more loss of hair | – | – | – | – | 4 out of 5 | small areas of patchy hair growth | – | – | – | – | – |
| CC(C)(C)NC(=O)[C@H]1CC[C@H]2[C@@H]3CC[C@H]4NC(=O)C=C[C@]4(C)[C@H]3CC[C@]12C [finasteride] | – | – | – | – | – | – | – | – | lack of libido, lack of potency, and mild reduction in semen | 83 | 66 | ineffective |
